In PMC10575543 (PLOS Pathogens, 2023):
Several values for one entry are separate records, joined by “and”; a condition that tells them apart may be missing. Equal entries are not always repeated.

Assays:
ALSV MTase [1] = biological target: T1, ALSV MTase (Alongshan virus, UniProt A0A344X2I6); assay: biochemical; type: binding
ALSV MTase [2] = biological target: T1, ALSV MTase; type: biochemical

| Compound | Kd (ALSV MTase [1]) | inhibition of ALSV MTase methyltransferase activity (ALSV MTase [2]) | N index (binding stoichiometry) (ALSV MTase [1]) |
| --- | --- | --- | --- |
| Nc1ncnc2c1ncn2[C@@H]1O[C@H](C[C@@H](N)CC[C@H](N)C(=O)O)[C@@H](O)[C@H]1O [SIN, sinefungin] | 12.6 ± 2.8 µM | preserved its inhibitory capacity |  |
| Nc1ncnc2c1ncn2[C@@H]1O[C@H](CSCC[C@H](N)C(=O)O)[C@@H](O)[C@H]1O [SAH, S-adenosyl-L-homocysteine] |  |  | 0.95 ± 0.05 and 1.05 ± 0.06 |
